Laboratory results: patent US20110038897A1, “ORAL CONTROLLED RELEASE FORMULATIONS” (priority 1999, published 2011)

Test: Biopharmaceutical properties of rivastigmine in humans
Assay type: in vivo

In the case of CCN(C)C(=O)Oc1cccc([C@H](C)N(C)C)c1 [Rivastigmine], the absorption is reported as “rapidly and completely absorbed” and the metabolism (esterases, e.g., acetyl and butyryl cholinesterase) is reported as “metabolised mainly through hydrolysis by esterases”.
